In PubChem BioAssay (NCI):
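Method: 48-hour compound exposure of cells in 96-well plates, five concentrations, linear interpolation of endpoints. TGI denotes the concentration required for complete inhibition of growth.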

Columns and labels:
Assay in all cases: NCI tumour cell line growth inhibition, 48 h
[1] = tested on: MALME-3M melanoma
[2] = tested on: HCT-116 colon
[3] = tested on: HCT-15 colon
[4] = tested on: OVCAR-5 ovarian
[5] = tested on: MOLT-4 leukemia
[6] = tested on: OVCAR-3 ovarian
[7] = tested on: HOP-92 NSCLC
[8] = tested on: MDA-MB-231 breast
[9] = tested on: SNB-19 CNS
[10] = tested on: UACC-257 melanoma
[11] = tested on: A549 NSCLC
[12] = tested on: SK-MEL-2 melanoma
[13] = tested on: BT-549 breast
[14] = tested on: SR leukemia
[15] = tested on: ACHN renal
[16] = tested on: MCF7 breast
[17] = tested on: HOP-62 NSCLC
[18] = tested on: 786-0 renal
[19] = tested on: KM12 colon
[20] = tested on: SF-268 CNS
[21] = tested on: SF-539 CNS
[22] = tested on: HCC-2998 colon
[23] = tested on: U251 CNS
[24] = tested on: OVCAR-4 ovarian
[25] = tested on: COLO 205 colon
[26] = tested on: CCRF-CEM leukemia
[27] = tested on: HT29 colon
[28] = tested on: UO-31 renal
[29] = tested on: A498 renal
[30] = tested on: SN12C renal
[31] = tested on: SW-620 colon
[32] = tested on: MDA-MB-435
[33] = tested on: CAKI-1 renal
[34] = tested on: EKVX NSCLC
[35] = tested on: RXF 393 renal
[36] = tested on: SNB-75 CNS
[37] = tested on: SF-295 CNS
[38] = tested on: NCI-H23 lung
[39] = tested on: NCI-H522 lung
[40] = tested on: HL-60(TB) leukemia
[41] = tested on: LOX IMVI melanoma
[42] = tested on: UACC-62 melanoma
[43] = tested on: SK-OV-3 ovarian
[44] = tested on: NCI-H460 lung
[45] = tested on: IGROV1 ovarian
[46] = tested on: TK-10 renal
[47] = tested on: M14 melanoma
[48] = tested on: SK-MEL-28 melanoma
[49] = tested on: HS 578T breast
[50] = tested on: T-47D breast
[51] = tested on: MDA-N
[52] = tested on: OVCAR-8 ovarian
[53] = tested on: SK-MEL-5 melanoma
[54] = tested on: PC-3 prostate
[55] = tested on: NCI/ADR-RES ovarian
[56] = tested on: NCI-H226 lung
[57] = tested on: DU-145 prostate
[58] = tested on: K-562 leukemia
[59] = tested on: RPMI-8226 leukemia

SMILES: COC(=O)/C(=N/NC(N)=O)C(C(=O)C(=O)Nc1ccc(C)cc1)c1nc2ccc(C(=O)c3ccccc3)cc2[nH]c1=O (configuration not stated)
- TGI [1]: > 100 µM
- TGI [2]: > 100 µM
- TGI [3]: > 100 µM
- TGI [4]: > 100 µM
- TGI [5]: > 100 µM
- TGI [6]: > 100 µM
- TGI [7]: > 100 µM
- TGI [8]: > 100 µM
- TGI [9]: > 100 µM
- TGI [10]: > 100 µM
- TGI [11]: > 100 µM
- TGI [12]: > 100 µM
- TGI [13]: > 100 µM
- TGI [14]: 41.8 µM
- TGI [15]: > 100 µM
- TGI [16]: > 100 µM
- TGI [17]: > 100 µM
- TGI [18]: > 100 µM
- TGI [19]: > 100 µM
- TGI [20]: > 100 µM
- TGI [21]: > 100 µM
- TGI [22]: > 100 µM
- TGI [23]: > 100 µM
- TGI [24]: > 100 µM
- TGI [25]: > 100 µM
- TGI [26]: > 100 µM
- TGI [27]: > 100 µM
- TGI [28]: > 100 µM
- TGI [29]: 89.6 µM
- TGI [30]: > 100 µM
- TGI [31]: > 100 µM
- TGI [32]: > 100 µM
- TGI [33]: > 100 µM
- TGI [34]: > 100 µM
- TGI [35]: > 100 µM
- TGI [36]: > 100 µM
- TGI [37]: > 100 µM
- TGI [38]: > 100 µM
- TGI [39]: > 100 µM
- TGI [40]: > 100 µM
- TGI [41]: > 100 µM
- TGI [42]: > 100 µM
- TGI [43]: > 100 µM
- TGI [44]: > 100 µM
- TGI [45]: > 100 µM
- TGI [46]: > 100 µM
- TGI [47]: > 100 µM
- TGI [48]: > 100 µM
- TGI [49]: > 100 µM
- TGI [50]: > 100 µM
- TGI [51]: > 100 µM
- TGI [52]: > 100 µM
- TGI [53]: > 100 µM
- TGI [54]: > 100 µM
- TGI [55]: > 100 µM
- TGI [56]: > 100 µM
- TGI [57]: > 100 µM

SMILES: CC(C)(Oc1ccc(Cl)cc1)C(=O)N(C(=O)N1CCN(c2ccccc2)CC1)c1ccccc1
- TGI [1]: > 100 µM
- TGI [2]: > 100 µM
- TGI [3]: > 100 µM
- TGI [4]: > 100 µM
- TGI [5]: > 100 µM
- TGI [6]: > 100 µM
- TGI [7]: > 100 µM
- TGI [8]: > 100 µM
- TGI [9]: > 100 µM
- TGI [10]: > 100 µM
- TGI [11]: > 100 µM
- TGI [12]: > 100 µM
- TGI [13]: > 100 µM
- TGI [14]: > 100 µM
- TGI [15]: > 100 µM
- TGI [16]: > 100 µM
- TGI [17]: > 100 µM
- TGI [18]: > 100 µM
- TGI [19]: > 100 µM
- TGI [20]: > 100 µM
- TGI [21]: > 100 µM
- TGI [22]: > 100 µM
- TGI [23]: > 100 µM
- TGI [24]: > 100 µM
- TGI [25]: > 100 µM
- TGI [26]: > 100 µM
- TGI [27]: > 100 µM
- TGI [28]: > 100 µM
- TGI [29]: > 100 µM
- TGI [30]: > 100 µM
- TGI [31]: > 100 µM
- TGI [32]: > 100 µM
- TGI [33]: > 100 µM
- TGI [34]: > 100 µM
- TGI [35]: > 100 µM
- TGI [36]: > 100 µM
- TGI [37]: > 100 µM
- TGI [38]: > 100 µM
- TGI [39]: > 100 µM
- TGI [40]: > 100 µM
- TGI [41]: > 100 µM
- TGI [42]: > 100 µM
- TGI [43]: > 100 µM
- TGI [44]: > 100 µM
- TGI [46]: > 100 µM
- TGI [47]: > 100 µM
- TGI [48]: > 100 µM
- TGI [49]: > 100 µM
- TGI [50]: > 100 µM
- TGI [51]: > 100 µM
- TGI [52]: > 100 µM
- TGI [53]: > 100 µM
- TGI [54]: > 100 µM
- TGI [55]: > 100 µM
- TGI [56]: > 100 µM
- TGI [58]: > 100 µM
- TGI [57]: > 100 µM

SMILES: C=CCN1CN(C2CCCCC2)CSC1=S
- TGI [1]: 18.7 µM
- TGI [2]: 25.1 µM
- TGI [3]: > 45.7 µM
- TGI [4]: 27.6 µM
- TGI [5]: > 22.5 µM
- TGI [6]: 29.6 µM
- TGI [7]: 39.3 µM
- TGI [8]: 43.6 µM
- TGI [9]: > 100 µM
- TGI [10]: 30 µM
- TGI [11]: > 65.7 µM
- TGI [12]: 26.9 µM
- TGI [13]: > 80.3 µM
- TGI [14]: 3.15 µM
- TGI [59]: > 34.4 µM
- TGI [15]: 17.5 µM
- TGI [16]: 9.11 µM
- TGI [17]: > 40.7 µM
- TGI [18]: 18.8 µM
- TGI [19]: 18 µM
- TGI [20]: 11.8 µM
- TGI [21]: 8.04 µM
- TGI [22]: 21.1 µM
- TGI [23]: 15.7 µM
- TGI [24]: 27.4 µM
- TGI [25]: 14.3 µM
- TGI [27]: 17 µM
- TGI [28]: 24 µM
- TGI [29]: 33.2 µM
- TGI [30]: 27.1 µM
- TGI [31]: 24.3 µM
- TGI [32]: 12.2 µM
- TGI [33]: 24 µM
- TGI [34]: 37.2 µM
- TGI [35]: 18.7 µM
- TGI [36]: 25.7 µM
- TGI [37]: > 81.5 µM
- TGI [38]: 40.5 µM
- TGI [39]: 17.1 µM
- TGI [40]: 0.655 µM
- TGI [41]: 27 µM
- TGI [42]: 22.1 µM
- TGI [43]: > 44.1 µM
- TGI [44]: 29.8 µM
- TGI [45]: 31.4 µM
- TGI [46]: 27 µM
- TGI [47]: 17.8 µM
- TGI [48]: 38.5 µM
- TGI [49]: 18.4 µM
- TGI [50]: 30.4 µM
- TGI [51]: 21.7 µM
- TGI [52]: 40.8 µM
- TGI [53]: 14.2 µM
- TGI [54]: 28 µM
- TGI [55]: > 95.5 µM
- TGI [56]: 42.8 µM
- TGI [58]: > 45.7 µM
- TGI [57]: > 26.4 µM
